One may read the GI50 as the concentration giving 50% growth inhibition. One may read the TGI as the concentration giving total growth inhibition.

The structures appear in SMILES notation.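 Interpolation was linear, between the two tested concentrations surrounding the appropriate level; five concentrations were tested over 48 hours in 96-well plates. At the GI50, growth is halved. The concentration for full growth arrest is given as TGI.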 A value given as a limit tells only on which side of the number the result lay.

Among the test systems are A498 renal; HCT-15 colon; HL-60(TB) leukemia; HS 578T breast; MDA-MB-435; OVCAR-3 ovarian; SF-268 CNS; T-47D breast.
Holding throughout (test): DTP human tumour cell line panel, 48 h

With `Cn1ncc(-c2ccc3c(=O)[nH]nc(CN)c3c2)c1-c1c(F)cc2ccccc2c1C#N`, the GI50 with A498 renal is 11.7 µM; with HCT-15 colon it was 4.92 µM; in the assay on HL-60(TB) leukemia, 3.42 µM; in the assay on HS 578T breast, 8.18 µM; in the assay with MDA-MB-435, 3.72 µM; with OVCAR-3 ovarian it was 6.53 µM. In addition, the GI50 in the assay on SF-268 CNS was 4.74 µM; in the assay on T-47D breast, 3.48 µM. Further, the TGI amounted to 23.9 µM in the assay with A498 renal; 19.1 µM in the assay on HCT-15 colon; 18.2 µM in the assay with HL-60(TB) leukemia; 28.7 µM with HS 578T breast; 14.5 µM in the assay on MDA-MB-435; 19.5 µM with OVCAR-3 ovarian. In addition, the values for the TGI in the assay on SF-268 CNS and with T-47D breast were 20.6 µM and 17.6 µM, respectively.

On to `Oc1c(CN2CCOCC2)cc(COCc2ccccc2)c2cccnc12`, for which the GI50 is 16.5 µM in the assay on A498 renal; 0.286 µM with HCT-15 colon; 2.38 µM with HL-60(TB) leukemia; 19.4 µM in the assay on HS 578T breast; 6.5 µM in the assay with MDA-MB-435; 2.49 µM with OVCAR-3 ovarian. For the same compound, the GI50 in the assay on SF-268 CNS is 1.95 µM; in the assay on T-47D breast it was 2.63 µM. The TGI in the assay with A498 renal is above 100 µM; in the assay with HCT-15 colon, 13.3 µM; with HL-60(TB) leukemia, 7.32 µM; in the assay with HS 578T breast it was above 100 µM; in the assay with MDA-MB-435 it was above 100 µM; with OVCAR-3 ovarian it was above 100 µM. The TGI in the assay with SF-268 CNS and in the assay on T-47D breast was above 100 µM throughout.

With `Oc1ccc(Cl)cc1-c1cc(-c2ccc(F)cc2)n[nH]1`, the GI50 was 2.21 µM with A498 renal; 0.416 µM in the assay on HCT-15 colon; 3.6 µM in the assay on HL-60(TB) leukemia; 1.71 µM with HS 578T breast; 2.53 µM with MDA-MB-435; 1.39 µM in the assay on OVCAR-3 ovarian. For the same compound, the GI50 with SF-268 CNS is 2.66 µM; in the assay with T-47D breast, 1.6 µM. In addition, the TGI amounted to 6.85 µM in the assay with A498 renal; 22.5 µM with HCT-15 colon; 21.5 µM with HL-60(TB) leukemia; 6.65 µM in the assay on HS 578T breast; 10.7 µM with MDA-MB-435; 3.53 µM in the assay on OVCAR-3 ovarian. Further, the TGI in the assay on SF-268 CNS turned out to be 11.4 µM; with T-47D breast it was 38.8 µM.

On to `COc1cccc(C2=C(c3cn(C)c4cccc(OC)c34)C(=O)NC2=O)c1`, for which the GI50 in the assay on A498 renal was 4.9 µM; with HCT-15 colon it was 3.41 µM; in the assay on HL-60(TB) leukemia, 9.75 µM; in the assay with HS 578T breast it was 8.93 µM; with MDA-MB-435 it was 0.832 µM; in the assay with OVCAR-3 ovarian, 7.74 µM. For the same compound, the GI50 with SF-268 CNS is 16.4 µM; in the assay on T-47D breast, 13.7 µM. Besides, the TGI with A498 renal is above 25 µM; in the assay on HCT-15 colon it was above 25 µM; in the assay with HL-60(TB) leukemia it was above 25 µM; in the assay with HS 578T breast, above 25 µM; with MDA-MB-435 it was above 9.17 µM; in the assay with OVCAR-3 ovarian, above 25 µM. Besides, the TGI in the assay with SF-268 CNS and in the assay on T-47D breast was above 25 µM throughout.

`O=[N+]([O-])c1cc(F)c2cccnc2c1O`: the GI50 in the assay on A498 renal was 6.84 µM; with HCT-15 colon it was 6.73 µM; in the assay on HL-60(TB) leukemia, 2.48 µM; in the assay on HS 578T breast it was 35.8 µM; in the assay with MDA-MB-435, 15 µM; with OVCAR-3 ovarian it was 3.93 µM. Moreover, the results for the GI50 in the assay with SF-268 CNS and in the assay with T-47D breast were 6.21 µM and 21.2 µM, respectively. Besides, the TGI is 42.4 µM with A498 renal; above 100 µM in the assay on HCT-15 colon; 8.12 µM in the assay on HL-60(TB) leukemia; above 100 µM in the assay on HS 578T breast; above 100 µM with MDA-MB-435; above 100 µM in the assay on OVCAR-3 ovarian. Besides, the TGI in the assay on SF-268 CNS and in the assay with T-47D breast was above 100 µM throughout.

Consider `O=c1c2c3c(sc2n2c(-c4ccc(Br)cc4)nnc2n1Cc1ccccc1)CCCC3`, for which the GI50 in the assay with A498 renal is 10.9 µM; with HCT-15 colon, 4.39 µM; with HL-60(TB) leukemia it was 14.1 µM; with HS 578T breast, 11.9 µM; in the assay with MDA-MB-435 it was 14.2 µM; with OVCAR-3 ovarian, 6.24 µM. The GI50 with SF-268 CNS is 7.44 µM; in the assay with T-47D breast, 4.42 µM. Also, the TGI was 22.9 µM in the assay with A498 renal; 17.8 µM in the assay with HCT-15 colon; 77.5 µM in the assay on HL-60(TB) leukemia; 36.6 µM with HS 578T breast; 35.3 µM in the assay with MDA-MB-435; 20 µM with OVCAR-3 ovarian. In addition, the TGI in the assay on SF-268 CNS was determined as 21.1 µM; in the assay with T-47D breast it was 16.8 µM.

Regarding `Cc1ccc2c(c1)C(=O)c1c-2n(CCCN=[N+]=[N-])c(=O)c2cc([N+](=O)[O-])ccc12`, the GI50 with A498 renal was above 100 µM; in the assay with HCT-15 colon it was above 100 µM; in the assay on HL-60(TB) leukemia, 22 µM; in the assay with HS 578T breast it was above 100 µM; with MDA-MB-435, above 100 µM; in the assay on OVCAR-3 ovarian it was above 100 µM. Besides, the GI50 was 5.59 µM with SF-268 CNS and 20.7 µM in the assay with T-47D breast. In addition, the TGI in the assay on A498 renal, with HCT-15 colon, in the assay with HL-60(TB) leukemia, in the assay with HS 578T breast, with MDA-MB-435 and with OVCAR-3 ovarian was above 100 µM throughout. Moreover, the results for the TGI in the assay with SF-268 CNS and in the assay on T-47D breast were above 100 µM and 93.6 µM, respectively.

With `COc1ccc(NC(=O)/C=C(C)/C=C/C=C(C)\C=C\C2=C(C)CCCC2(C)C)cc1`, the GI50 is above 100 µM in the assay with A498 renal; above 100 µM in the assay with HCT-15 colon; 2.13 µM with HL-60(TB) leukemia; 9.02 µM in the assay on HS 578T breast; 48.2 µM with MDA-MB-435; 70.4 µM with OVCAR-3 ovarian. Besides, the GI50 with SF-268 CNS was above 100 µM; in the assay with T-47D breast it was 3.79 µM. The TGI with A498 renal was above 100 µM; with HCT-15 colon, above 100 µM; in the assay on HL-60(TB) leukemia, 16.1 µM; with HS 578T breast, 96.7 µM; in the assay on MDA-MB-435 it was above 100 µM; in the assay with OVCAR-3 ovarian it was above 100 µM. In addition, the TGI with SF-268 CNS is above 100 µM; with T-47D breast, 43.1 µM.

Take `C1CC[N-]CC1.CC(=N\O)/C(C)=N/O.CC(=N\O)/C(C)=N/O.[CH2-]CCN1CCOCC1.[Co+2]`: the GI50 in the assay on A498 renal, with HCT-15 colon, in the assay with HL-60(TB) leukemia, in the assay with HS 578T breast, in the assay with MDA-MB-435 and with OVCAR-3 ovarian was above 100 µM each time. Further, the GI50 in the assay on SF-268 CNS and with T-47D breast was above 100 µM throughout. The TGI with A498 renal, with HCT-15 colon, with HL-60(TB) leukemia, with HS 578T breast, in the assay with MDA-MB-435 and with OVCAR-3 ovarian was above 100 µM in each case. The TGI in the assay on SF-268 CNS and in the assay on T-47D breast was above 100 µM throughout.

The values are drawn from PubChem BioAssay (NCI).
